Results on two molecules are retold here after US5254574A, “New tetrazole derivatives, process for their preparation and their use” (Chemisch Pharmazeutische Forschungsgesellschaft m.b.H., priority 1991, dated 1993).

Data set [1] has as its target T1, Angiotensin II receptor (isolated rat aorta) (Rattus norvegicus, UniProt P25095).
T1 construct: isolated rat aorta; from tissue; host or cells: isolated rat aorta
T1 sequence (P25095 1-359): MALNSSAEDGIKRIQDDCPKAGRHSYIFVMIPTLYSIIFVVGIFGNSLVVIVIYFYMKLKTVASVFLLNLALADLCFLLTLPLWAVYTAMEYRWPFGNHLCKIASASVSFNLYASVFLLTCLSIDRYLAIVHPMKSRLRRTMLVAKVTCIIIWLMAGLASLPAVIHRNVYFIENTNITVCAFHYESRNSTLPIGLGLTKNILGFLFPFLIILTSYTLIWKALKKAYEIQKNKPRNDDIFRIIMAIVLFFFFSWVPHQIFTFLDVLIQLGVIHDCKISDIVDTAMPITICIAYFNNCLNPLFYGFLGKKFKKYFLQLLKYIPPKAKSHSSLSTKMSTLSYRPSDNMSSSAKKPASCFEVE
Kind of data set: Isolated rat aorta, contractile force; cumulative angiotensin II dose-response curves with and without antagonist pretreatment. Conditions: dose/effect curve of angiotensin II; FIG. 1, FIG. 2. Here is the method: 1 or DuP 753 (10-8, 10^-7, 10^-6 mol/1, each) and results were expressed as percentage of maximum contraction obtained by addition of 10^-5 mol/1 noradrenaline.
EP50 -values and pA2 -values were determined arithmetically.
FIG. 1 Isolated rat aorta contractile force of subst. 1
FIG. 2 Isolated rat aorta contractile force of DuP 753

Data set [2] deals with angiotensin II induced increases in mean arterial blood pressure. The data set can be described thus: Anaesthetized normotensive rat: angiotensin II induced increases in mean arterial blood pressure after intraduodenal administration. Conditions: FIG. 3. Here is the method: b) anaesthetized normotensive rat: Angiotension II (1 /ug/kg i.v.) was given before as well as in 15 minutes intervals after intraduodenal administration of the drugs.
FIG. 3 The effects of DuP 753 and Subst. 1 on angiotension II induced increases in mean arterial bloodpessure in normotensive anaesthetized rats (n=4)

The conditions of data set [3]: cited from earlier work.
The next data set relates to angiotensin II receptor. Conditions: Wong et al., 1990, JPET 255, 211-217; cited from earlier work.

The structures appear in SMILES notation. “Also recorded” adds a separate entry of the source.

For `CCCCc1nc(Cl)c(CO)n1Cc1ccc(-c2ccccc2-c2nn[nH]n2)cc1` [DuP 753, 2-n-butyl-4-chloro-5-hydroxymethyl-1-((2'-(1-H-tetrazol-5-yl)biphenyl-4-yl)methyl)imidazole], the “mode of antagonism in vitro” value in data set [1] was “acts competitively in experiments in vitro”. Further, in data set [2] (DuP 753 compared with the substances according to the invention), the “duration of action in vivo” value is listed as “longer duration of action”. For the same molecule, in data set [2] (concluded from duration of action), the “conversion into active non-competitive metabolite in vivo” value is recorded as “conversion into an active non-competitive metabolite is detectable”. The “metabolic conversion in vivo” value in data set [3] (literature) was “converted into a non-competitive metabolite, EXP 3174”.

For the molecule `CCCCc1nc(Cl)c(C(=O)O)n1Cc1ccc(-c2ccccc2-c2nnn[nH]2)cc1` [EXP 3174, 2-n-butyl-4-chloro-1-((2'-(1H-tetrazol-5-yl)biphenyl-4-yl)methyl)-imidazole-5-carboxylic acid], the “mode of angiotensin II receptor antagonism” value with angiotensin II receptor was “non-competitive irreversible angiotensin II receptor antagonist”. In addition, in data set [3] (in vivo, Wong et al., 1990), the “contribution of metabolite to duration of action of DuP 753” value is reported as “responsible for the long duration of action; also recorded: largely responsible for the duration of action of DuP 753”.
